In patent US4452809A, “Trans-4-(2-chlorophenoxy)-1-ethyl-3-pyrrolidinol and anti-depressant use thereof” (A. H. Robins Company, Inc., priority 1983, dated 1984):
Structures can show the parent of a compound that is named as a salt.

Key:
[1] = test system: depressant effects induced by tetrabenazine; test: Antitetrabenazine test in mice (blocking of tetrabenazine-induced depressant effects); assay type: in vivo; conditions: Mus musculus, ip, compound intraperitoneally, tetrabenazine intravenously
Text: Compounds preferred for their antidepressant activity have the formula: [drawing 4] Illustrative of the antidepressant activity of compounds of Formula Ia are the effective dosages determined by the foregoing anti-tetrabenazine test.

cardiac arrhythmia = test: Counteracting of ouabain-induced cardiac arrhythmia in anesthetized dogs; assay type: in vivo, adult mongrel dogs
Procedure: The procedure is carried out under barbiturate anesthesia using adult mongrel dogs of either sex weighing from 8 to 14 kg. A Grass Model 7 polygraph was used for recording femoral arterial blood pressure (Statham P23AC Transducer) and the electrocardiogram (Grass 7P4 Preamplifier). Ouabian was given intravenously in an initial dose of 40γ/kg in a second dose of 20γ/kg, given 30 minutes after the first dose, and in subsequent doses of 10γ/kg which were repeated at 15 minute intervals as required for producing cardiac arrhythmias that persisted for at least 15 minutes. When the arrhythmias were established the test compounds were administered by infusion (Harvard Model 942 Infusion Pump) into a femoral vein at a rate of 1 mg/kg/min. Concentrations of compounds were adjusted according to the weight of the dog to allow a volume infusion of 1 ml/min. Compounds that are considered to be active as antiarrhythmic agents cause reversion to sinus rhythm which is maintained for at least 60 minutes.

Structure (SMILES): CCN1C[C@@H](O)[C@H](Oc2c(Cl)cccc2Cl)C1 (relative stereo) [Example 49, Trans-4-(2,6-dichlorophenoxy)-1-ethyl-3-pyrrolidinol Hydrochloride]
- ED50 [1]: 4.8 mg/kg

Structure (SMILES): CN1C[C@@H](O)[C@H](Oc2ccccc2)C1 (relative stereo) [Example 3, Trans-1-methyl-4-phenoxy-3-pyrrolidinol]
- ED50 [1]: 3.7 mg/kg

Structure (SMILES): CCN1C[C@@H](O)[C@H](Oc2cccc3ccccc23)C1 (relative stereo) [Example 55, Trans-1-ethyl-4-(1-naphthalenyloxy)-3-pyrrolidinol Hydrochloride]
- minimal effective dose (cardiac arrhythmia; Canis lupus familiaris, iv, 1 h, barbiturate anesthesia, ouabain arrhythmia, infusion into femoral vein 1 mg/kg/min, reversion to sinus rhythm maintained at least 60 minutes, read-out: antiarrhythmic activity, minimum effective dose): 10.7 mg/kg
- antiarrhythmic activity (in words) (cardiac arrhythmia; ouabain-induced arrhythmia): exceptional antharrhythmic activity

Structure (SMILES): CCN1C[C@@H](O)[C@H](Oc2ccccc2Cl)C1 (relative stereo) [Example 48, Trans-4-(2-chlorophenoxy)-1-ethyl-3-pyrrolidinol Hydrochloride]
- ED50 [1]: 2.8 mg/kg

Structure (SMILES): CCN1C[C@@H](O)[C@H](Oc2ccccc2)C1 (relative stereo) [Example 46, Trans-1-ethyl-4-phenoxy-3-pyrrolidinol Oxalate Hydrate (4:1)]
- ED50 [1]: 3.5 mg/kg
